The series deals with DGAT2. Particulars: ASO.

Values joined by “and” are separate entries in the source; they are usually repeats but may differ in a detail not shown here. Equal entries are not always repeated. After the bases stand the sugars from the 5' end (letter, count) and the backbone: PS all phosphorothioate, else s phosphorothioate and o phosphodiester by linkage. Methylation of C is not given here. e = 2'-O-(2-methoxyethyl) (MOE); d = 2'-deoxy (DNA)

Take “GCAGCCTGGACAAGTCCTGC (sugars e3 d14 e3, PS)”: the target mRNA inhibition by setting is: (HepG2, 0.12 µM) 83%; (HepG2, 2.5 µM) 48% and 59%; (HepG2, 10 µM) 73%; (HepG2, 20 µM) 81%. As for “GTGCAGCCTACAAGAGCCTG (sugars e5 d10 e5, PS)”, the target mRNA inhibition reads like this: (HepG2, 2.5 µM) 67%; (HepG2, 10 µM) 86%. Take “GTGGTCTGGGAACAGCAGCA (sugars e5 d10 e5, PS)”: the target mRNA inhibition is, setting by setting: (HepG2, 2.5 µM) 72% and 61%; (HepG2, 10 µM) 66% and 72%. For the sequence “TTCTGGACCCATCGGCCCCA (sugars e5 d10 e5, PS)”, for the setting “HepG2, 0.12 µM”, the target mRNA inhibition came to 27%. In the case of “CACAATGGGAATGGTATCGC (sugars e5 d10 e5, PS)”, the target mRNA inhibition (HepG2, 2.5 µM) turned out to be 59% and the target mRNA inhibition (HepG2, 10 µM) came out at 91%. Consider “AGCACTGACATGGTAAGTCC (sugars e5 d10 e5, PS)”, for which the target mRNA inhibition (HepG2, 2.5 µM) was 75% and 68%; the target mRNA inhibition (HepG2, 10 µM) is 93% and 91%. “CCTCCAGGACCTCAGTCTCC (sugars e5 d10 e5, PS)”: the target mRNA inhibition (HepG2, 0.12 µM) was 66%. In the case of “ATGCCAATGCCTAGGTCACA (sugars e5 d10 e5, PS)”, the target mRNA inhibition by setting is: (HepG2, 2.5 µM) 78%; (HepG2, 10 µM) 91%. In the case of “GGTCTTTTTGGCTGCCCTGC (sugars e5 d10 e5, PS)”, the target mRNA inhibition by setting is: (HepG2, 2.5 µM) 81% and 84%; (HepG2, 10 µM) 87% and 90%. Turning to “TCTGATCAATTATTAACCTA (sugars e5 d10 e5, PS)”, the target mRNA inhibition (HepG2, 2.5 µM) is 20% and the target mRNA inhibition (HepG2, 10 µM) is 55%.

As for “GCTAGAGGCTGAGTTCTGCT (sugars e5 d10 e5, PS)”, the target mRNA inhibition is, setting by setting: (HepG2, 2.5 µM) 85% and 87%; (HepG2, 10 µM) 90% and 92%. “TCTTTTAAATAACCCACAGA (sugars e5 d10 e5, PS)” gave a target mRNA inhibition (HepG2, 0.12 µM) of 10%.

Turning to “GACAGGACCCACTGGAGCAC (sugars e3 d14 e3, PS)”, the target mRNA inhibition (HepG2, 0.12 µM) came to 58%. Still for that read-out and setting: the value for “GCACTGCAGGCCACTCCCAG (sugars e5 d10 e5, PS)” was 37%; that for “CCAAGCAGGAGCTGGACAGA (sugars e5 d10 e5, PS)” was 19%. Regarding “ATCCCAACTCTGCCATTTAA (sugars e5 d10 e5, PS)”, the target mRNA inhibition amounted to 60% (HepG2, 2.5 µM) and 90% (HepG2, 10 µM). Regarding “GGCTGAGTCTGTGCTGCATC (sugars e5 d10 e5, PS)”, the target mRNA inhibition (HepG2, 2.5 µM) was 85% and 65%; the target mRNA inhibition (HepG2, 10 µM) is 81%. In turn, “CAGCAGGTTGTGTGTCTTCA (sugars e2 d13 e5, PS)” returned a target mRNA inhibition (HepG2, 0.12 µM) of 57%. Still for that read-out and setting: with “TGGAGCTCAGAGACTCAGCC (sugars e3 d14 e3, PS)” the figure was 76%. Same read-out and setting: with “AACCCACAGACACCCATGAC (sugars e5 d10 e5, PS)” the figure was 4%. Still for that read-out and setting: the value for “GGATGGTGATGGGCTCTCCC (sugars e5 d10 e5, PS)” was 67%.

Turning to “TTTAGGCTATGGTCTGAGCA (sugars e5 d10 e5, PS)”, the target mRNA inhibition by setting is: (HepG2, 2.5 µM) 68% and 55%; (HepG2, 10 µM) 85% and 78%. With “CTGACACACAATATCCATGG (sugars e5 d10 e5, PS)”, the target mRNA inhibition reads like this: (HepG2, 2.5 µM) 76% and 57%; (HepG2, 10 µM) 93% and 85%.

The sequence “GCCAGGTAAGGCCGTATGCC (sugars e2 d13 e5, PS)” registered a target mRNA inhibition (HepG2, 0.12 µM) of 66%. Same read-out and setting: the value for “ATGGAGTGACAGGGCAGGAA (sugars e5 d10 e5, PS)” was 59%; that for “TTAAAAAAGACCTAACATTG (sugars e5 d10 e5, PS)” was 0%; that for “TGGTGGTCAGCAGGTTGTGT (sugars e5 d10 e5, PS)” was 51%.

Take “ATACCTTATCTTTGTCCACA (sugars e5 d10 e5, PS)”: the target mRNA inhibition (HepG2, 2.5 µM) is 79% and the target mRNA inhibition (HepG2, 10 µM) was 94%. “GACCCACTGTGACCTCCTGC (sugars e5 d10 e5, PS)” had a target mRNA inhibition (HepG2, 0.12 µM) of 25%. Regarding “TAGCTCTCAGTGAAGCTGGA (sugars e5 d10 e5, PS)”, the target mRNA inhibition (HepG2, 2.5 µM) is 84% and 81%; the target mRNA inhibition (HepG2, 10 µM) was 90% and 91%. In turn, “TGTTGCCATCATACTAGACT (sugars e5 d10 e5, PS)” had a target mRNA inhibition (HepG2, 2.5 µM) of 64% and a target mRNA inhibition (HepG2, 10 µM) of 75%.

For “TAATCTGCTGCTCAGAAGGC (sugars e5 d10 e5, PS)”, where the note is “HepG2, 0.12 µM”, the target mRNA inhibition worked out at 36%. Still for that read-out and setting: with “CCCACTGGAGCACTGAGATG (sugars e2 d13 e5, PS)” the figure was 70%. For the sequence “ATCCATGTCATCAGCCACCC (sugars e5 d10 e5, PS)”, the target mRNA inhibition was 61% and 63% (HepG2, 2.5 µM); 86% and 80% (HepG2, 10 µM). On to “TTTGAAATCCAATGCACCTT (sugars e5 d10 e5, PS)”, for which the target mRNA inhibition is, setting by setting: (HepG2, 2.5 µM) 63%; (HepG2, 10 µM) 96%. On to “TCCAAGTGTACTTTGAGCAT (sugars e5 d10 e5, PS)”, for which the target mRNA inhibition is 58% and 54% (HepG2, 2.5 µM); 84% and 91% (HepG2, 10 µM). For the setting “HepG2, 0.12 µM”, “CGCGCAGGACCCCGGAGTAG (sugars e3 d14 e3, PS)” displayed a target mRNA inhibition of 69%.

For the sequence “GGACCCACTGGAGCACT (sugars e3 d10 e4, PS)”, the target mRNA inhibition (HepG2, 2.5 µM) was 57% and the target mRNA inhibition (HepG2, 10 µM) was found to be 93%.

The values above are taken from the OligoGym collection.
